Results from US20110091570A1, “Compositions and Devices for Antisepsis and Anticoagulation” (priority 2008, published 2011).
“And” between values parts separate entries of the source, which are not always exact repeats. Equal entries are not always repeated.

Experiments:
Balb/c mice = assay: Injection of 1% NCT solution into the tail vein of mice (tolerability); assay type: in vivo, mouse
Protocol: In this model, injection of 1% aqueous NCT solution was tolerated at a volume that equals approximately 10% of the total blood volume of a mouse. A 1% solution contains 55 mmol/L NCT, which is more than 1000 times greater than any physiologic concentration produced by human leukocytes.
Balb/c mice were injected into the tail vein with a sterile aqueous solution of 1% NCT. Four mice were injected with 0.05 ml, four mice with 0.1 ml, one mouse with 0.2 ml, and one mouse with 0.3 ml, respectively, of the NCT solution.
In this Example, injection of 1% aqueous NCT solution was tolerated in the mouse model at a volume that equals approximately 10% of the total blood volume of a mouse.

[1] = test system: Escherichia coli (ATCC 11229); assay: Bactericidal activity of NCT without and with heparin (CFU counts); assay type: cell-based
Protocol: FIG. 2 presents a plot of bactericidal activity of 1% NCT without and with 125 IE/mL heparin against Escherichia coli ATCC 11229 at pH 7.1 and 37° C. Mean values±standard error of the mean of three independent experiments. P>0.05 between NCT without and NCT with heparin.
(§1) NCT was dissolved in 0.1 M phosphate buffer containing either 125 IE/mL heparin or no heparin. The final NCT concentration was 1%. Various bacterial species were grown in tryptic soy broth overnight, were washed twice in saline and then suspended in the NCT and NCT/heparin solutions. The species were Staphylococcus aureus (ATCC 25923), Escherichia coli (ATCC 11229), Streptococcus pyogenes, Staphylococcus epidermidis, Pseudomonas aeruginosa, Proteus mirabilis, and methicillin-resistant Staphylococcus aureus. Controls were performed with the foregoing bacterial species suspended in 0.1 M phosphate buffer without additives and in 0.1 M phosphate buffer containing 125 IE/mL heparin. All of the solutions were incubated at 37° C. and pH 7.1. After 1, 3, 5, 8, and 10 minutes, aliquots of 100 μL were removed and diluted 10-fold or 100-fold in 0.6% sodium thiosulfate solution to inactivate the NCT. Aliquots (50 μL) of these dilutions were spread on tryptic soy agar plates. The plates were incubated at 37° C. and colony forming units of bacteria were counted after 24 and 48 hours. […]

[2] = test system: methicillin-resistant Staphylococcus aureus; assay: as above; assay type: cell-based
[3] = test system: Staphylococcus epidermidis; assay: as above; assay type: cell-based
[4] = test system: purulent coated crural ulcers; details: purulent coated crural ulcers [Ref. 17]; cited from earlier work
citrate blood = assay: Thrombin time (TT), BC Thrombin Reagent test; assay type: biochemical, human; details: for TT / TT (sec): Example 6, single volunteer; for Thrombin time (TT) / Thrombin time (TT), mean value: Example 7; for Thrombin time (TT): individual subjects; for Thrombin time (TT), mean value: mean of 11 subjects
Protocol: Whole blood was taken from volunteers and enriched with trisodium citrate (0.3 mL of a 0.106 molar solution per 3 mL whole blood) (S-Monovette®, Sarstedt, Nümbrecht, Germany). Routine coagulation tests were performed on the following samples:
The following commercial coagulation tests were performed according to the prescription of the manufacturer: prothrombin time (PT) was determined using Thromborel® S test (Dade Behring GmbH, Marburg, Germany); activated partial thromboplastin time (aPTT) was determined using Pathromtin* SL test (Dade Behring GmbH, Marburg, Germany); and thrombin time (TT) was determined using BC Thrombin Reagent test (Dade Behring GmbH, Marburg, Germany).
Whole blood was taken from a single volunteer and enriched with trisodium citrate (0.3 mL of a 0.106 molar solution per 3 mL whole blood) (S-Monovette®, Sarstedt, Nümbrecht, Germany). Portions of 1.8 mL citrate blood were mixed with 0.2 mL NCT in 0.9% saline. The following final (after dilution in blood) NCT concentrations were tested separately: 1% (55 mM); 0.5% (27.5 mM); 0.25% (13.75 mM); 0.1% (5.5 mM); 0.05% (2.75 mM); 0.025% (1.375 mM); and 0.01% (0.55 mM). A control without NCT was performed in parallel. The following commercial coagulation tests were performed according to the prescription of the manufacturer: prothrombin time (PT) was determined using Thromborel® S test (Dade Behring GmbH, Marburg, Germany), activated partial thromboplastin time (aPTT) was determined using Pathromtin* SL test (Dade Behring GmbH, Marburg, Germany); thrombin time (TT) was determined using BC Thrombin Reagent test (Dade Behring GmbH, Marburg, Germany); and fibrinogen was determined using Multifibren* U test (Dade Behring GmbH, Marburg, Germany).
(§2) Whole blood was taken from 11 volunteers and enriched with trisodium citrate (0.3 mL of a 0.106 molar solution per 3 mL whole blood) (S-Monovette®, Sarstedt, Nümbrecht, Germany). Commercial coagulation tests (as described in Example 6) were performed with the following samples: […]

chronic rhinosinusitis = details: pilot study in chronic rhinosinusitis [Ref. 16]; cited from earlier work
Streptococcus pyogenes = assay: Bactericidal activity of NCT without and with heparin (CFU counts); assay type: cell-based
Protocol: FIG. 3 presents a plot of bactericidal activity of 1% NCT without and with 125 IE/mL heparin against Streptococcus pyogenes at pH 7.1 and 37° C. Mean values±standard error of the mean of three independent experiments. P>0.05 between NCT without and NCT with heparin.
as §1

Antithrombin III = Antithrombin III in citrate blood; assay type: biochemical, human; details: Example 7; for Antithrombin III: individual subjects 1-11; for Antithrombin III, mean value: mean of 11 subjects
Protocol: as §2

Staphylococcus aureus = details: local administration, mouse model [Ref 21]; cited from earlier work
[5] = Balb/c mice, sterile aqueous 1% NCT, 0.05-0.3 ml i.v.
[6] = 0.1% NCT, virtually identical experiments
[7] = 1% NCT, 125 IE/mL heparin, pH 7.1, 37° C., 1-10 min

O=S(=O)(O)CCNCl [NCT, N-chlorotaurine]
tolerated injection volume (Balb/c mice; 1% aqueous NCT solution i.v.): approximately 10 % of the total blood volume of a mouse
changes of behaviour after tail vein injection (Balb/c mice; [5]): no changes of behaviour
survival after tail vein injection (Balb/c mice; [5]): all mice survived
influence of heparin on the killing of bacteria [1, 6]: no statistically significant influence of heparin on the killing of bacteria
killing activity of NCT with vs without heparin [1, 7]: no difference in the killing activity
influence of heparin on the killing of bacteria [2, 6]: no statistically significant influence of heparin on the killing of bacteria
killing activity of NCT with vs without heparin [2, 7]: no difference in the killing activity
influence of heparin on the killing of bacteria [3, 6]: no statistically significant influence of heparin on the killing of bacteria
killing activity of NCT with vs without heparin [3, 7]: no difference in the killing activity
pain and toxicity versus chloramine T [4]: significantly less pain and was less toxic than chloramine T
thrombin time (citrate blood; Example 5, 1% NCT final concentration in citrate blood): above the test limits
TT (citrate blood; 0.01% (0.55 mM) NCT final): 19.5 s
TT (citrate blood; 0.025% (1.375 mM) NCT final): 26.6 s
TT (citrate blood; 0.05% (2.75 mM) NCT final): 48.8 s
TT (citrate blood; 0.1% (5.5 mM) NCT final): 92.2 s
TT (citrate blood; 0.25% (13.75 mM) NCT final): 101.8 s
TT (sec) (citrate blood; 0.5% (27.5 mM) NCT final): >limit
TT (sec) (citrate blood; 1% (55 mM) NCT final): >limit
Thrombin time (TT) (citrate blood; 0.01% NCT): 22 sec (5×) and 24 sec (2×) and 32 sec and 23 sec (3×)
Thrombin time (TT), mean value (citrate blood; 0.01% NCT): 23.5 s
Thrombin time (TT) (citrate blood; 0.025% NCT): 44 sec (2×) and 39 sec and 59 sec and 43 sec and 52 sec and 55 sec and 48 sec and 40 sec and 45 sec and 35 sec
Thrombin time (TT), mean value (citrate blood; 0.025% NCT): 45.8 s
tolerability (chronic rhinosinusitis): good tolerability
influence of heparin on the killing of bacteria (Streptococcus pyogenes; [6]): no statistically significant influence of heparin on the killing of bacteria
killing activity of NCT with vs without heparin (Streptococcus pyogenes; [7]): no difference in the killing activity
Antithrombin III (Antithrombin III; 0.01% NCT): 92% and 79% and 101% and 85% and 82% and 81% and 94% and 75% and 95% and 80% and 84%
Antithrombin III, mean value (Antithrombin III; 0.01% NCT): 86.2%
Antithrombin III (Antithrombin III; 0.025% NCT): 90% and 81% and 101% and 79% (3×) and 80% and 87% and 73% and 94% and 78%
Antithrombin III, mean value (Antithrombin III; 0.025% NCT): 83.7%
effect on septic arthritis (Staphylococcus aureus): inhibited septic arthritis
